US12642270B2, “Substituted thiophene carboxamides, thiophene carboxylic acids and derivatives thereof” (Bayer Aktiengesellschaft, priority 2019, dated 2026)

test: Log P by HPLC on reversed phase columns (EEC directive 79/831 Annex V.A8); type: physicochemical; conditions: method marked [a]
Summary of the method: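 Reversed-phase HPLC per EEC 79/831 Annex V.A8, LC-UV with 10→95% acetonitrile linear gradient; eluent [a] 0.1% formic acid (acidic), [b] 0.001 M ammonium acetate (neutral), [c] 0.1% phosphoric acid (acidic). Calibrated with C3–C16 straight-chain alkan-2-ones, linear interpolation of retention times; multiple values joined by "+".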

LogP | Compound
3.04^[a] | COC(=O)C1(NC(=S)c2sc(C#N)c(Cl)c2C)CC1 [1.0290]
1.79^[a] | Cc1c(C(=O)NC2(C(=O)O)CC2)sc(C#N)c1Cl [1.0291]
2.97^[a] | O=C(NC(C(=O)O)C1CC1)c1sc(Br)c(Br)c1I (centres unmarked) [1.0292]
2.94^[a] | O=C(NC(C(=O)O)C1CC1)c1sc(Br)c(Br)c1Cl (centres unmarked) [1.0293]
2.64^[a] | O=C(NC(C(=O)O)C1CC1)c1sc(Br)c(Br)c1F (centres unmarked) [1.0294]
2.01^[a] | COC(=O)CNC(=O)c1cc(Br)c(F)s1 [1.0295]
2.23^[a] | COC(=O)CNC(=O)c1sc(F)c(Cl)c1C [1.0296]
2.59^[a] | CCOC(=O)CNC(=O)c1sc(F)c(Cl)c1C [1.0297]
2.77^[a] | CCOC(=O)C1(NC(=O)c2sc(F)c(Cl)c2C)CC1 [1.0298]
3.87^[a] | CCOC(=O)C(NC(=O)c1sc(F)c(Cl)c1C)C(C)C (centres unmarked) [1.0299]
3.64^[a] | CCOC(=O)C(CCSC)NC(=O)c1sc(F)c(Cl)c1C (centres unmarked) [1.0300]
4.15^[a] | CCOC(=O)C(Cc1ccccc1)NC(=O)c1sc(F)c(Cl)c1C (centres unmarked) [1.0301]
2.03^[a] | COC(=O)CNC(=O)c1sc(C#N)c(Cl)c1C [1.0302]
2.39^[a] | CCOC(=O)CNC(=O)c1sc(C#N)c(Cl)c1C [1.0303]
3.47^[a] | CCOC(=O)C(NC(=O)c1sc(C#N)c(Cl)c1C)C(C)C (centres unmarked) [1.0304]
3.28^[a] | CCOC(=O)C(CCSC)NC(=O)c1sc(C#N)c(Cl)c1C (centres unmarked) [1.0305]
3.77^[a] | CCOC(=O)C(Cc1ccccc1)NC(=O)c1sc(C#N)c(Cl)c1C (centres unmarked) [1.0306]
1.94^[a] | COC(=O)CNC(=O)c1cc(F)c(Cl)s1 [1.0307]
2.49^[a] | CCOC(=O)C1(NC(=O)c2cc(F)c(Cl)s2)CC1 [1.0308]
3.44^[a] | CCOC(=O)C(NC(=O)c1cc(F)c(Cl)s1)C(C)C (centres unmarked) [1.0309]
3.25^[a] | CCOC(=O)C(CCSC)NC(=O)c1cc(F)c(Cl)s1 (centres unmarked) [1.0310]
2.33^[a] | CCOC(=O)CNC(=O)c1cc(Br)c(F)s1 [1.0311]
2.57^[a] | CCOC(=O)C1(NC(=O)c2cc(Br)c(F)s2)CC1 [1.0312]
3.54^[a] | CCOC(=O)C(NC(=O)c1cc(Br)c(F)s1)C(C)C (centres unmarked) [1.0313]
3.31^[a] | CCOC(=O)C(CCSC)NC(=O)c1cc(Br)c(F)s1 (centres unmarked) [1.0314]

LogP | Compound
3.77^[a] | CCOC(=O)C(Cc1ccccc1)NC(=O)c1cc(Br)c(F)s1 (centres unmarked) [1.0315]
2.31^[a] | COC(=O)CNC(=O)c1sc(F)c(Br)c1C [1.0316]
2.67^[a] | CCOC(=O)CNC(=O)c1sc(F)c(Br)c1C [1.0317]
2.83^[a] | CCOC(=O)C1(NC(=O)c2sc(F)c(Br)c2C)CC1 [1.0318]
3.94^[a] | CCOC(=O)C(NC(=O)c1sc(F)c(Br)c1C)C(C)C (centres unmarked) [1.0319]
3.67^[a] | CCOC(=O)C(CCSC)NC(=O)c1sc(F)c(Br)c1C (centres unmarked) [1.0320]
4.23^[a] | CCOC(=O)C(Cc1ccccc1)NC(=O)c1sc(F)c(Br)c1C (centres unmarked) [1.0321]
4.51^[a] | CCOC(=O)C1(NC(=S)c2sc(Cl)c(Cl)c2Br)CC1 [1.0323]
2.41^[a] | O=C(NC1(C(=O)O)CC1)c1sc(Cl)c(Br)c1Cl [1.0324]
4.55^[a] | CCOC(=O)C1(NC(=S)c2sc(Cl)c(Br)c2Cl)CC1 [1.0325]
3.37^[a] | CCOC(=O)CN(OC)C(=O)c1sc(Br)c(Br)c1F [1.0327]
3.91^[a] | COC(=O)C1(NC(=S)c2sc(Br)c(Br)c2F)CC1 [1.0328]
2.95^[a] | O=C(O)C1(NC(=S)c2sc(Br)c(Br)c2F)CC1 [1.0329]
2.36^[a] | COC(=O)[C@H](CCC(=O)O)NC(=O)c1sc(Br)c(Br)c1F [1.0330]
4.74^[a] | CCOC(=O)C1(NC(=S)c2sc(Br)c(Br)c2F)CCC1 [1.0331]
3.71^[a] | COC(=O)C1(NC(=S)c2sc(Cl)c(Br)c2C)CC1 [1.0332]
4.11^[a] | COC(=O)C1(NC(=S)c2sc(Br)c(Br)c2Cl)CC1 [1.0333]
4.06^[a] | COC(=O)C1(NC(=S)c2sc(Cl)c(Cl)c2Br)CC1 [1.0334]
3.10^[a] | COC(=O)C1(NC(=S)c2sc(C#N)c(Br)c2C)CC1 [1.0335]
3.03^[a] | COC(=O)C1(NC(=S)c2cc(Br)c(C#N)s2)CC1 [1.0336]
2.81^[a] | O=C(NC(CC(F)F)C(=O)O)c1sc(Cl)c(Cl)c1Br (centres unmarked) [1.0337]
3.20^[a] | CCOC(=O)C1(NC(=O)c2sc(Br)c(Br)c2C(F)F)CC1 [1.0341]
2.30^[a] | N#CCNC(=O)c1sc(Cl)c(Cl)c1F [1.0342]
2.43^[a] | COC(=O)CNC(=O)c1sc(Cl)c(Cl)c1F [1.0343]
2.83^[a] | CCOC(=O)CNC(=O)c1sc(Cl)c(Cl)c1F [1.0344]

LogP | Compound
3.34^[a] | CCOC(=O)C(C)NC(=O)c1sc(Cl)c(Cl)c1F (centres unmarked) [1.0345]
3.36^[a] | COC(=O)C(NC(=O)c1sc(Cl)c(Cl)c1F)C1CC1 (centres unmarked) [1.0346]
3.70^[a] | CCOC(=O)C1(NC(=O)c2sc(Cl)c(Cl)c2F)CCC1 [1.0347]
4.37^[a] | CCOC(=O)C(NC(=O)c1sc(Cl)c(Cl)c1F)C(C)C (centres unmarked) [1.0348]
3.19^[a] | COC(=O)C(CC(F)F)NC(=O)c1sc(Cl)c(Cl)c1F (centres unmarked) [1.0349]
4.63^[a] | CCOC(=O)C(CC(C)C)NC(=O)c1sc(Cl)c(Cl)c1F (centres unmarked) [1.0350]
3.95^[a] | CCOC(=O)C(CCSC)NC(=O)c1sc(Cl)c(Cl)c1F (centres unmarked) [1.0351]
4.47^[a] | CCOC(=O)C(Cc1ccccc1)NC(=O)c1sc(Cl)c(Cl)c1F (centres unmarked) [1.0352]
2.54^[a] | N#CCNC(=O)c1sc(Br)c(Br)c1C(F)F [1.0353]
2.66^[a] | COC(=O)CNC(=O)c1sc(Br)c(Br)c1C(F)F [1.0354]
3.01^[a] | CCOC(=O)CNC(=O)c1sc(Br)c(Br)c1C(F)F [1.0355]
2.86^[a] | COC(=O)C1(NC(=O)c2sc(Br)c(Br)c2C(F)F)CC1 [1.0356]
3.35^[a] | CCOC(=O)C(C)NC(=O)c1sc(Br)c(Br)c1C(F)F (centres unmarked) [1.0357]
3.37^[a] | COC(=O)C(NC(=O)c1sc(Br)c(Br)c1C(F)F)C1CC1 (centres unmarked) [1.0358]
3.67^[a] | CCOC(=O)C1(NC(=O)c2sc(Br)c(Br)c2C(F)F)CCC1 [1.0359]
4.16^[a] | CCOC(=O)C(NC(=O)c1sc(Br)c(Br)c1C(F)F)C(C)C (centres unmarked) [1.0360]
3.28^[a] | COC(=O)C(CC(F)F)NC(=O)c1sc(Br)c(Br)c1C(F)F (centres unmarked) [1.0361]
4.45^[a] | CCOC(=O)C(CC(C)C)NC(=O)c1sc(Br)c(Br)c1C(F)F (centres unmarked) [1.0362]
3.89^[a] | CCOC(=O)C(CCSC)NC(=O)c1sc(Br)c(Br)c1C(F)F (centres unmarked) [1.0363]
4.34^[a] | CCOC(=O)C(Cc1ccccc1)NC(=O)c1sc(Br)c(Br)c1C(F)F (centres unmarked) [1.0364]
2.61^[a] | N#CCNC(=O)c1sc(Br)c(Br)c1C(F)(F)F [1.0365]
2.71^[a] | COC(=O)CNC(=O)c1sc(Br)c(Br)c1C(F)(F)F [1.0366]
3.05^[a] | CCOC(=O)CNC(=O)c1sc(Br)c(Br)c1C(F)(F)F [1.0367]
2.93^[a] | COC(=O)C1(NC(=O)c2sc(Br)c(Br)c2C(F)(F)F)CC1 [1.0368]
